The target of assay [1] is BTK protein in human whole blood (Homo sapiens (Human), UniProt Q06187). Description: Btk protein in human whole blood MSD ELISA based assay (Btk degradation). The class given is cell-based. As to conditions: human whole blood from healthy donors, 6 hours at 37° C., half maximal degradation concentration; read-out: hWB BTK DC50. Here is the method:
Btk protein degradation was tested using an Meso Scale Discovery-ELISA system (MSD-ELISA): (1) Test compounds were added to human whole blood; (2) human whole blood cells treated with test compounds were lysed; (3) lysed cells were treated with capture antibody, an antibody to Btk; (4) lysed cells were treated with […] to Btk; and (5) lysed cells were treated with anti-mouse antibody (tagged).
Specifically, about 80 μl of fresh human whole blood from healthy donors was transferred into each well of a 96-well V-bottom plate (Costar, Cat No.3894). Using a TECANTM D300e Digital Dispenser (Tecan)), 1:4 serially diluted compounds [(8 pt assay) in DMSO solution (final 0.2%) starting at 3 μM top concentration], were added in duplicate. Thereafter, plates were placed in a 37° C. incubator and incubated for 6 hours.
At the end of incubation, 80 μl of 2× CST lysis buffer (Cell Signaling Technology, Cat No. 9803), prepared from a 10× stock solution, was added per well to lyse the blood. Plates were then sealed with a plate sealer and the samples were frozen overnight at −80° C.
Total amount of BTK protein remaining in the blood samples after compound treatment was measured using MSD-ELISA. After thawing the frozen plates, blood lysates were mixed thoroughly and transferred to small spot high-bind MSD plates (Meso Scale Discovery, Cat No. L45XB-3) and coated with capturing antibody, rabbit anti-human BTK (D3H5) (Cell Signaling Technology, Cat No. 8547CF). Thereafter, primary detection antibody, mouse anti-human BTK monoclonal antibody, (BD Biosciences, Cat No. 611117) and secondary detection antibody, anti-mouse SULFO-TAG (Meso Scale Discovery, Cat No. R32AC-1) were added. The assay plates were read on an MSD S600 plate reader by the addition of 2× MSD read buffer (Meso Scale Discovery, R92TC-1). All reagent transfers, including blood lysis, was conducted using a Biomed i7 liquid handler. From the dose response curves, DC50 values were calculated by averaging data from duplicate experiments. and Curve fitting was done by non-linear regression using GraphPad Prism. The DC50 values are reported in Table 2 in the hWB BTK DC50 (nM) column The Dmax values represent the maximum amount of BTK degradation observed upon compound treatment compared to DMSO only treated samples. The dMax (%) values are reported in Table 2 in the hWB BTK dMax (%) column.

In the next assay the target is BTK in mouse bone marrow (Mus musculus (Mouse), UniProt P35991). Description: Mouse Bone Marrow Assay (MSD ELISA of BTK degradation in mouse bone marrow). The format is in vivo. As to conditions: female C57BL/6J mice, single dose of Dose A, bone marrow collected after 24 hours, % remaining BTK in vehicle versus treated samples. Here is the method:
Female C57BL/6J mice (Jackson Laboratories) were used for this study. Compounds or vehicle/control were prepped with EtOH; PEG-400; Phosal 53 MCT (10:30:60, v/v). Four mice were tested per compound or vehicle/control. On Day 1, mice were administered a single dose of Dose A. On Day 2 (after 24 hours), tissue (bone marrow) was collected from one hind leg per mouse.
An MSD (Meso Scale Discovery) ELISA (enzyme-linked immunosorbent assay) based assay was used to determine BTK degradation in mouse bone marrow. The following materials and equipment were used: 10% NP40 solution (nonionic polyoxyethylene surfactant, ThermoFisher, cat no. 28324); protease inhibitor mini tablet (Roche, cat no. 05 892 970 001); PhosphoSTOP™ tablet (Roche, cat no. 04 906 837 001); Pierce™ BCA Protein Assay Kit (Thermofisher, Cat No. 23225); Precellys® 2 mL lysing tube with 2.8 mm beads (VWR, cat no. 10032-756); Bertin Precellys® 24/Cryolys ® cooling system; 96-well MSD streptavidin pre-coated plates (MSD, cat no. L15SA-1); MSD Blocker A (MSD, cat no. R93BA-4); capture antibody, biotinylated BTK mAb (BD Biosciences, cat no. 624008; custom order); primary detection antibody, BTK RpAb (rabbit polyclonal antibody, CST, cat no. 8547S, D3H5 clone); secondary detection antibody, anti-Rabbit-Sulfo-Tag (MSD, cat no. R32AB-1); read Buffer, 4× (MSD, cat no. R92TC-1); recombinant BTK protein (Thermofisher, cat no. PR5442A); MSD Tris Wash Buffer (10×) (MSD, cat no. R61TX-1); PBS (phosphate-buffered saline); deionized water (diH2O); Lysis Buffer [0.2% NP40 in PBS+Protease Inhibitor tablet (1 tablet/10 mL)+PhosphoSTOP tablet (1 tablet/10 mL)]; 3% MSD Blocker A [MSD Blocker A+450 mL diH2O+50 mL]; and 10× MSD Tris Wash Buffer.
Lysis buffer [(PBS+0.2% NP40+PI (protease inhibitor)+PhosphoSTOP)]was prepared and put on ice until it was fully cold. Ice cold lysis buffer […] was added to each Precellys® tube containing beads and bone marrow sample. Sample tubes were transferred into Precellys® machine and homogenized using 5000 rpm -2×20 seconds. The sample lysates were centrifuged at 14,000 rpm for 20 minutes at 4° C. after homogenizing.
The protein concentration was determined using Pierce™ BCA Protein Assay Kit following manufacturer's recommended protocol. The protein normalized working solution was prepared, using 30 μg protein per sample lysate for assay.
A 300 ng/ml working stock solution of recombinant BTK protein in lysis buffer was prepared, and the sample was serially diluted at 3-fold dilution (10-point assay, highest concentration was 300 ng/mL and lowest concentration was 0.015 ng/mL)
MSD plate coating: Coating antibody (biotinylated-BTK mAb) stock solution was prepared at 1 μg/mL in PBS buffer. 50 μL/well capture antibody (Biotinylated BTK mAb) solution was added, and the plates were shaken gently at ambient temperature for two hours. The plates were washed 3 times with 1× MSD Tris Wash Buffer in a plate washer (300 μL/well), and the plates were blocked with 3% MSD Blocker A (150 μL/well). The plates were incubated for an additional 1-2 hours at ambient temperature with gentle shaking. The plates were washed 3 times with 1× MSD wash buffer using plate washer. Bone marrow lysates (30 μg) at a final volume of 50 μL/well were added into the plates. The serially diluted standard samples were added to the same plates at a final volume of 50 μL/well. The plates were incubated overnight at 4° C. with gentle shaking.
The plates were washed three times with 1× MSD wash buffer (prepared from 10× concentration buffer) using plate washer. Primary detection antibody at 50 μL/well was added (BTK RpAb; 1:1000 dilution in 1% MSD Blocker A). The plates were incubated for two hours at ambient temperature with gentle shaking. The plates were washed three times with 1× MSD wash buffer using plate washer. Anti-Rabbit-SULFO-TAG secondary antibodies (50 μl/well) were added, 1:500 diluted in 1% MSD Blocker A, and the plates were incubated for one to two hours at ambient temperature. […]

Sequence of BTK in mouse bone marrow (P35991 whole entry): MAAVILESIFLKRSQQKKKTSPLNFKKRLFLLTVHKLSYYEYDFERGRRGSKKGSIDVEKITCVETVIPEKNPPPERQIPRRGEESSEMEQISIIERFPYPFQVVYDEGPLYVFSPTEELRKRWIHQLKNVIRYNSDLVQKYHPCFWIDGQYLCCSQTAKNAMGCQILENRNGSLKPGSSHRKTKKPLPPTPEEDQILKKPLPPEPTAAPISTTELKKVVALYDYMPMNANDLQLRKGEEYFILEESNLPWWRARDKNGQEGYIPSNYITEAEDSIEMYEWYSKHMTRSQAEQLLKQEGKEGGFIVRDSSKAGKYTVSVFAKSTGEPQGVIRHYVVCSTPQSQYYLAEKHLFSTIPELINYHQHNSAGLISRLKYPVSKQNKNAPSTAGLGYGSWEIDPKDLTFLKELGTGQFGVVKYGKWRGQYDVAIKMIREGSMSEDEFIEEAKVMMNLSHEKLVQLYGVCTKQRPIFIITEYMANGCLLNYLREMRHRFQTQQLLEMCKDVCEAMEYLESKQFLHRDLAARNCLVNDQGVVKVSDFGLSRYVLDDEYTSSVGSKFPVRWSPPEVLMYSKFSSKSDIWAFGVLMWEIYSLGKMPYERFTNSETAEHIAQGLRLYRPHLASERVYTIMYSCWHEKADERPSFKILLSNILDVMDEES
Sequence of BTK protein in human whole blood (Q06187 whole entry): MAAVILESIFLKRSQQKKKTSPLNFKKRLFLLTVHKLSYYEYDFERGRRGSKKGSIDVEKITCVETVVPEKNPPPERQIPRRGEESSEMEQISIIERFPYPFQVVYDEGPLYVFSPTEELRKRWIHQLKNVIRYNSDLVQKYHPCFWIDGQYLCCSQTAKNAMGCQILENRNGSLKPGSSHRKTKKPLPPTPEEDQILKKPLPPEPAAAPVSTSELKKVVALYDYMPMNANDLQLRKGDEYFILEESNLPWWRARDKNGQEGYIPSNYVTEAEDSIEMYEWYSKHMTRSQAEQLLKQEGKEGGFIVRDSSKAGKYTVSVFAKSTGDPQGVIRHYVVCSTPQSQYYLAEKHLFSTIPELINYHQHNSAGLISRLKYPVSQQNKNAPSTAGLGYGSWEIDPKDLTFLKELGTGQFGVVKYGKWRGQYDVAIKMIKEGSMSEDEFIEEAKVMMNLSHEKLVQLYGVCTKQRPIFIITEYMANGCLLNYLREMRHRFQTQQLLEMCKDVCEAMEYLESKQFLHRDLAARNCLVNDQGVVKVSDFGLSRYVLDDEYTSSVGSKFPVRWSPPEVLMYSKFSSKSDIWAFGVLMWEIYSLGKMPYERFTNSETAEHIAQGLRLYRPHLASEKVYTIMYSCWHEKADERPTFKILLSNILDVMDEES

Regarding `Cc1cc(-c2cc(Nc3ccc(N4CCN(CCc5ccc(N6CCC(=O)NC6=O)cc5)C[C@@H]4C)cn3)ncn2)ccc1[C@@H](C)NC(=O)c1nc(C(C)(C)C)no1` [Example 1, 3-tert-butyl-N-[(1R)-1-{4-[6-({5-[(2S)-4-{2-[4-(2,4-dioxo-1,3-diazinan-1-yl)phenyl]ethyl}-2-methylpiperazin-1-yl]pyridin-2-yl}amino)pyrimidin-4-yl]-2-methylphenyl}ethyl]-1,2,4-oxadiazole-5-carboxamide], the DC50 in assay [1] came out at 4.08 nM. At BTK in mouse bone marrow, the “Mouse Bone Marrow (%), % remaining BTK” value came out at 11%.
The matching figures for `Cc1cc(-c2cc(Nc3ccc(N4CCN(CCc5ccc(N6CCC(=O)NC6=O)cc5)C[C@H]4C)cn3)ncn2)ccc1[C@@H](C)NC(=O)c1nc(C(C)(C)C)no1` [Example 2, 3-tert-butyl-N-[(1R)-1-{4-[6-({5-[(2R)-4-{2-[4-(2,4-dioxo-1,3-diazinan-1-yl)phenyl]ethyl}-2-methylpiperazin-1-yl]pyridin-2-yl}amino)pyrimidin-4-yl]-2-methylphenyl}ethyl]-1,2,4-oxadiazole-5-carboxamide]: 5.93 nM and 12%.
The matching figures for `Cc1cc(-c2cc(Nc3ccc(N4CCN(CCc5ccc(N6CCC(=O)NC6=O)cc5)CC4)cn3)ncn2)ccc1[C@@H](C)NC(=O)c1nc(C(C)(C)C)no1` [Example 3, 3-tert-butyl-N-{(1R)-1-[4-(6-{[5-(4-{2-[4-(2,4-dioxo-1,3-diazinan-1-yl)phenyl]ethyl}piperazin-1-yl)pyridin-2-yl]amino}pyrimidin-4-yl)-2-methylphenyl]ethyl}-1,2,4-oxadiazole-5-carboxamide]: 2.88 nM and 22%.
The matching figures for `Cc1cc(-c2cc(Nc3ccc(N4CCN(CCc5ccc(N6CCC(=O)NC6=O)c(F)c5)C[C@@H]4C)cn3)ncn2)ccc1[C@@H](C)NC(=O)c1nc(C(C)(C)C)no1` [Example 4, 3-tert-butyl-N-[(1R)-1-{4-[6-({5-[(2S)-4-{2-[4-(2,4-dioxo-1,3-diazinan-1-yl)-3-fluorophenyl]ethyl}-2-methylpiperazin-1-yl]pyridin-2-yl}amino)pyrimidin-4-yl]-2-methylphenyl}ethyl]-1,2,4-oxadiazole-5-carboxamide]: 7.62 nM and 13%.
Consider `Cc1cc(-c2cc(Nc3ccc(N4CCN(CCc5ccc(N6CCC(=O)NC6=O)c(F)c5)C[C@H]4C)cn3)ncn2)ccc1[C@@H](C)NC(=O)c1nc(C(C)(C)C)no1` [Example 5, 3-tert-butyl-N-[(1R)-1-{4-[6-({5-[(2R)-4-{2-[4-(2,4-dioxo-1,3-diazinan-1-yl)-3-fluorophenyl]ethyl}-2-methylpiperazin-1-yl]pyridin-2-yl}amino)pyrimidin-4-yl]-2-methylphenyl}ethyl]-1,2,4-oxadiazole-5-carboxamide], for which the 50% degradation concentration (DC50) in assay [1] worked out at 6 nM. For the same molecule, the “Mouse Bone Marrow (%), % remaining BTK” value on BTK in mouse bone marrow is given as 12%.
The matching figures for `CC[C@H]1CN(CCc2ccc(N3CCC(=O)NC3=O)cc2)CCN1c1ccc(Nc2cc(-c3ccc([C@@H](C)NC(=O)c4nc(C(C)(C)C)no4)c(C)c3)ncn2)nc1` [Example 6, 3-tert-butyl-N-[(1R)-1-{4-[6-({5-[(2S)-4-{2-[4-(2,4-dioxo-1,3-diazinan-1-yl)phenyl]ethyl}-2-ethylpiperazin-1-yl]pyridin-2-yl}amino)pyrimidin-4-yl]-2-methylphenyl}ethyl]-1,2,4-oxadiazole-5-carboxamide]: 2.45 nM and 19%.
For `CC[C@H]1CN(CCc2ccc(N3CCC(=O)NC3=O)c(F)c2)CCN1c1ccc(Nc2cc(-c3ccc([C@@H](C)NC(=O)c4nc(C(C)(C)C)no4)c(C)c3)ncn2)nc1` [Example 7, 3-tert-butyl-N-[(1R)-1-{4-[6-({5-[(2S)-4-{2-[4-(2,4-dioxo-1,3-diazinan-1-yl)-3-fluorophenyl]ethyl}-2-ethylpiperazin-1-yl]pyridin-2-yl}amino)pyrimidin-4-yl]-2-methylphenyl}ethyl]-1,2,4-oxadiazole-5-carboxamide] the same measures were 18.7 nM and 22%.
On to `CC[C@@H]1CN(CCc2ccc(N3CCC(=O)NC3=O)cc2)CCN1c1ccc(Nc2cc(-c3ccc([C@@H](C)NC(=O)c4nc(C(C)(C)C)no4)c(C)c3)ncn2)nc1` [Example 8, 3-tert-butyl-N-[(1R)-1-{4-[6-({5-[(2R)-4-{2-[4-(2,4-dioxo-1,3-diazinan-1-yl)phenyl]ethyl}-2-ethylpiperazin-1-yl]pyridin-2-yl}amino)pyrimidin-4-yl]-2-methylphenyl}ethyl]-1,2,4-oxadiazole-5-carboxamide], for which the DC50 in assay [1] came to 4.04 nM. The “Mouse Bone Marrow (%), % remaining BTK” value on BTK in mouse bone marrow was 30%.
For `Cc1cc(-c2cc(Nc3ccc(N4CCN(CCc5ccc(N6CCC(=O)NC6=O)cc5)CC4(C)C)cn3)ncn2)ccc1[C@@H](C)NC(=O)c1nc(C(C)(C)C)no1` [Example 9, 3-tert-butyl-N-{(1R)-1-[4-(6-{[5-(4-{2-[4-(2,4-dioxo-1,3-diazinan-1-yl)phenyl]ethyl}-2,2-dimethylpiperazin-1-yl)pyridin-2-yl]amino}pyrimidin-4-yl)-2-methylphenyl]ethyl}-1,2,4-oxadiazole-5-carboxamide] the same measures were 9.61 nM and 31%.

The record behind these values is patent US20240109877A1, “PYRIMIDINES FOR DEGRADING BRUTON'S TYROSINE KINASE” (AbbVie Inc., priority 2022, published 2024).
